Measurements reported in patent publication US20080306076A1, “MODULATION OF CHEMOSENSORY RECEPTORS AND LIGANDS ASSOCIATED THEREWITH” (SENOMYX, INC., priority 2007, published 2008).
Positions count from the first letter of the chain named.

Assays:
hT1R1 D192A = target: T1, hT1R1 D192A (Homo sapiens, UniProt Q7RTX1, D192A); test: Mutagenesis study, hT1R1 mutant D192A; format: cell-based; conditions: D192 mutant, FIG. 11
T1 construct: expressed in transfected cells; host or cells: HEK293, transient transfection
T1 sequence (Q7RTX1 21-841 D192A): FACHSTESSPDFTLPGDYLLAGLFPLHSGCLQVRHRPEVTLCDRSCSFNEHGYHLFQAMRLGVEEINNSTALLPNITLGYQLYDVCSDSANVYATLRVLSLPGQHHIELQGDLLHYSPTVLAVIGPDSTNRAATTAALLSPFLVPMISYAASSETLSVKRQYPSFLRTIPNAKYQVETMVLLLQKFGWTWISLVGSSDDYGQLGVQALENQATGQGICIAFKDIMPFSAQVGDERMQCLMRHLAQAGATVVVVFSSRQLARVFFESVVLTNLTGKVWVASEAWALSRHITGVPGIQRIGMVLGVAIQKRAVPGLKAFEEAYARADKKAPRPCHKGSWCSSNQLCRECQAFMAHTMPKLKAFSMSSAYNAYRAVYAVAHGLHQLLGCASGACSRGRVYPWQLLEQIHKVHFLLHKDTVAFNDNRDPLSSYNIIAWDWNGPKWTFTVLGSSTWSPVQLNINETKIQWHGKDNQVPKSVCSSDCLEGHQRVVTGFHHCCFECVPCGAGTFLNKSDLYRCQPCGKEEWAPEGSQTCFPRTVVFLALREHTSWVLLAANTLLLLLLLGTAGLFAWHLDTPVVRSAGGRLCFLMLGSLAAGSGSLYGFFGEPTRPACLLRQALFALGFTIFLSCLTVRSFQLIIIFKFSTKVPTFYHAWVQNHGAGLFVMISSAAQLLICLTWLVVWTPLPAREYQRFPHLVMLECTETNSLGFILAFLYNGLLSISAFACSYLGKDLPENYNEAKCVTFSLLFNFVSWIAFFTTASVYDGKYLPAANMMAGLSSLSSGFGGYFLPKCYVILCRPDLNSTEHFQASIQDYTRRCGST
T1 sequence (Q923K1 21-858 partner): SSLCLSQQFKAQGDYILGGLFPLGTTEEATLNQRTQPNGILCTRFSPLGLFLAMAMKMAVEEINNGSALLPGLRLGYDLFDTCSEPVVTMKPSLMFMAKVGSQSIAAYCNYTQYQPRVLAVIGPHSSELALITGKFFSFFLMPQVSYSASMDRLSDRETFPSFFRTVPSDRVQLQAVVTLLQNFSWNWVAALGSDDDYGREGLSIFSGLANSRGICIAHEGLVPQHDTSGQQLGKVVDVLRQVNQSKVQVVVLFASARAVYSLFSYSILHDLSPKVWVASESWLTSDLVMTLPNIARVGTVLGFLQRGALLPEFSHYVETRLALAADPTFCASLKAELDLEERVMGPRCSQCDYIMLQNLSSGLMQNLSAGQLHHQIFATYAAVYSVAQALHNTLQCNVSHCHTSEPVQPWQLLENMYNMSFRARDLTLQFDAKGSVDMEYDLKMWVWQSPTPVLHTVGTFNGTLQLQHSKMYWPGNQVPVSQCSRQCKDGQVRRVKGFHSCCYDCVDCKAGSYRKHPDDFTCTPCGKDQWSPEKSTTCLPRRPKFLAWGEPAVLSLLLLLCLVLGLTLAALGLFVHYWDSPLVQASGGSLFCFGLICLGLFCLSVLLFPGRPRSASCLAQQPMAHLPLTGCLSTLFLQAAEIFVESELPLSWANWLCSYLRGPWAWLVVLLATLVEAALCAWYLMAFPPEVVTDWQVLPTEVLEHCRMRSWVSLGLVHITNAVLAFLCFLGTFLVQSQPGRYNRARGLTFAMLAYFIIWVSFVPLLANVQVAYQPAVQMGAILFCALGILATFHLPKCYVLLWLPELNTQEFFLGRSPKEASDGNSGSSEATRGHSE
Description: (§1) In order to further define the interaction sites of umami stimuli, we performed site-directed mutagenesis on human T1R1 VFT. The mutagenesis was done using the routine PCR-based method. […] were transiently transfected into HEK293 cell together with the rat T1R3 wild type cDNA, and the transfected cells were characterized using an automated FLIPR machine or a calcium imaging system as described in our previous patent applications.

hT1R1 S306A = target: T2, hT1R1 S306A (Homo sapiens, UniProt Q7RTX1, S306A); test: Mutagenesis study, hT1R1 mutant S306A; format: cell-based; conditions: S306 mutation
T2 construct: expressed in transfected cells; host or cells: HEK293, transient transfection
T2 sequence (Q7RTX1 21-841 S306A): T1 sequence (Q7RTX1 21-841 D192A) with A172D, S286A
T2 sequence (Q923K1 21-858 partner): T1 sequence (Q923K1 21-858 partner)
Description: as §1

For `N[C@@H](CCC(=O)O)C(=O)O` [L-Glu, L-glutamate], the “activity against L-Glu” value (hT1R1 D192A) was “significant reduced activity”.

In the case of `Nc1nc2c(ncn2[C@@H]2O[C@H](COP(=O)(O)O)[C@@H](O)[C@H]2O)c(=O)[nH]1` [GMP, guanosine-5′-monophosphate], the “enhancement activity of GMP” value (hT1R1 S306A) is reported as “similarly affected”.
